One data set has as its target T1, human CAR LBD (Homo sapiens, UniProt Q14994).
T1 sequence (Q14994 103-352): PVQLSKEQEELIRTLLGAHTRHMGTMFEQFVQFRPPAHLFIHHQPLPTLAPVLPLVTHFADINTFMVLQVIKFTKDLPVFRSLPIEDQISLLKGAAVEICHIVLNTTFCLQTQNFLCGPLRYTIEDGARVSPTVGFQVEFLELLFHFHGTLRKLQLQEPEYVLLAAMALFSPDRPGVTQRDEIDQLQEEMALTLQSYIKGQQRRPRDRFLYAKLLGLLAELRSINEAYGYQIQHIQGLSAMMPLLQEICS
The data set is described as follows: LanthaScreen TR-FRET CAR Coactivator assay. The format is biochemical. The note with it: nb = no binding. Here is the method: (§1) We utilized the LanthaScreen TR-FRET CAR Coactivator Binding Assay Kit, goat (Thermo Fisher Scientific, Cat. No. PV4836), which includes GST-tagged human CAR LBD and a fluorescein-labeled PGC1α coactivator peptide. The assay was performed with slight modifications to the manufacturer’s protocol, as previously reported. […] The interaction with the PXR ligand-binding domain (LBD) was assessed using the LanthaScreen TR-FRET PXR Competitive Binding Assay (Thermo Fisher Scientific, PV4839), as previously described. This assay quantifies the ability of test compounds to displace a fluorescent PXR ligand from the receptor. Fluorescence readings were taken on a Synergy 2 Multi-Mode Microplate Reader (BioTek, Winooski, VT). The half-maximal inhibitory concentration (IC50) for PXR LBD was calculated from at least eight data points using GraphPad Prism software.

The nature of data set [1]: Plasma stability, mouse plasma. In kind it is in vitro ADME. The conditions noted are these: up to 120 min, read-out: Plasma stability, t1/2 (min), mouse. Here is the method: The protocols and reagents for the plasma protein binding assay and metabolic stability testing in human and mouse liver microsomes are detailed in our previous report. Briefly, metabolic stability of compounds was assessed at a single concentration (5 μM) at t = 0, 10, 30, and at t = 45 min. The stability of compounds was tested in human and mouse microsomes (ThermoFisher Scientific). Compounds were tested in triplicate with or without NADPH wells as a negative control for cytochrome P450 metabolism. In addition to hepatic metabolism, compounds were also subjected to degradation/modification by enzymes in human (VWR International) and mouse (Biomedica, CZ) plasma for t = 0, 30, 60, and at t = 120 min. Each assay included a substrate with known activity as a positive control. Time points were analyzed by LC/MS/MS. The peak area for the parent compound is compared to the time zero sample in order to assess the amount of remaining compound.

A further data set deals with T2, vitamin D receptor (VDR) (Homo sapiens, UniProt P11473).
T2 construct: expressed in transfected cells
T2 sequence (P11473 whole entry): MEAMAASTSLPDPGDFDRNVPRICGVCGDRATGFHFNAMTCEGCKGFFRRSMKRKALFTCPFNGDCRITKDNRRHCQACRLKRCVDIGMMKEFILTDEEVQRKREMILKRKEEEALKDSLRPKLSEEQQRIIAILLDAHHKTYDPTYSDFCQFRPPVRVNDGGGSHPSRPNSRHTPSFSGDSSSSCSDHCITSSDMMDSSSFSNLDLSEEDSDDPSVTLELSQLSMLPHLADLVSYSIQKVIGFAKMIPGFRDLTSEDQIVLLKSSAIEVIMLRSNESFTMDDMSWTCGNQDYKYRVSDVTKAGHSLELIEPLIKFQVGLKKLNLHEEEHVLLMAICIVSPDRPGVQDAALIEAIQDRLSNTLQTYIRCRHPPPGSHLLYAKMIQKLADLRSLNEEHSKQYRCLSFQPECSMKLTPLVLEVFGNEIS
Briefly: VDR luciferase reporter assay, agonistic and antagonistic setups. In kind it is cell-based. The note with it: prototype ligand calcitriol. The method, then: (§2) For the farnesoid X receptor (FXR) luciferase gene reporter assay, the full-length expression vector was paired with pFXRE-luc luciferase construct. The p1A1-luc construct was used in the aryl hydrocarbon receptor (AhR) assays with pRL-TK for normalization. Gal4-LXR-α/β, and Gal4-PPAR-γ constructs were used with the pGAL4 UAS-luc construct. For the VDR assay, expression vector pSG5-hVDR together with pVDRE-luc constructs was used. Firefly and Renilla luciferase activities were analyzed using a Dual reporter assay (Promega). For the nuclear receptor assays, prototype ligands were used at the following concentrations: Calcitriol for VDR (100 nM), GW3965 for LXRα and LXRβ (10 μM), 6-OCA for FXR (1 μM), fenofibrate for PPARα (10 μM), estradiol for ERα and β (10 μM), rosiglitazone for PPARγ (10 μM), 3-MC for AhR (5 μM), and TCPOBOP for mCAR (10 μM). Detailed descriptions and protocols are detailed in our recent publication. ,
In general terms: Reporter assays use an easily measured gene product as a stand-in for the process of interest.

The target in the next data set is T3, LXRβ (Homo sapiens, UniProt P55055).
T3 construct: expressed in transfected cells
T3 sequence (P55055 222-460 limits assumed): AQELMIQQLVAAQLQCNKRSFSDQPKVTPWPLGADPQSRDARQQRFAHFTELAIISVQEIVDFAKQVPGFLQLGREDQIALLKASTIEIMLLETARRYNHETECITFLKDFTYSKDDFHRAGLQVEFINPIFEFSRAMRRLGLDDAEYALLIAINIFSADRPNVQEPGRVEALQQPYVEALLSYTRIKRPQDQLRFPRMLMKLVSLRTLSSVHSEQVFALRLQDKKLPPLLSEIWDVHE
The data set is described as follows: LXRβ luciferase reporter assay, agonistic and antagonistic setups. The conditions noted are these: prototype ligand GW3965. In kind it is cell-based. Here is the method: as §2

A further data set addresses PPARα (Homo sapiens, UniProt Q07869). Briefly: PPARα luciferase reporter assay, agonistic and antagonistic setups. The conditions noted are these: prototype ligand fenofibrate. The format is cell-based. Here is the method:
as §2

The subject of another data set is rodent PXRs. The data set is described as follows: Rodent PXR orthologue luciferase reporter assays. The format is cell-based, rat/mouse. The note with it: PCN as prototypical inducer. Here is the method:
The CYP3A4 gene promoter luciferase reporter construct (p3A4-luc) bears a distal XREM (−7836/–7208) and a proximal promoter sequence (prPXRE, −362/+53) from the CYP3A4 gene promoter region. […] The human PXR expression vector (variant 1, NM_003889.3) as well as vectors for mouse, rat, and monkey orthologues were described in our recent paper (39). […] Rhesus monkey, mouse, and rat PXR expression vectors (100 ng/well each) were also obtained from GenScript. […] Carlberg (University of Kuopio, Kuopio, Finland).
(§3) The cells were cultured in DMEM medium (Merck) supplemented with 10% fetal bovine serum.

For another data set, the target named is Aurora-A(h) (Homo sapiens, UniProt O14965). The data set is described as follows: Off-target kinase panel. The format is biochemical. The note with it: MI891 @ 1 µM. Here is the method:
(§4) To evaluate the selectivity of MI891, an off-target profiling study was performed using a panel of 58 kinases.

For a further data set, the target named is CDK9/cyclin T1(h) (Homo sapiens, UniProt P50750). The data set is described as follows: Off-target kinase panel. The format is biochemical. The note with it: MI891 @ 1 µM. The method, then: as §4
CDK9/cyclin T1(h), sequence (P50750 whole entry): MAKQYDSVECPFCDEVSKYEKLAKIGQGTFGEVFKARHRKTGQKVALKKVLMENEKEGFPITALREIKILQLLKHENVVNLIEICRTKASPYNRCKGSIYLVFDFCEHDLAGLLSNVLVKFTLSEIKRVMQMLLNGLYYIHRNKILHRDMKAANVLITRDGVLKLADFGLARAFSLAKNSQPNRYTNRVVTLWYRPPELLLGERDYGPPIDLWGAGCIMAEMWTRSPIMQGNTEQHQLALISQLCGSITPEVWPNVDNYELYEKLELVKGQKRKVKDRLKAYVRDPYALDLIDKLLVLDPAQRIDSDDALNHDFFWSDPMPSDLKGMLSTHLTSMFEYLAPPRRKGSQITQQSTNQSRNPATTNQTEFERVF
CDK9/cyclin T1(h), sequence (O60563 whole entry partner): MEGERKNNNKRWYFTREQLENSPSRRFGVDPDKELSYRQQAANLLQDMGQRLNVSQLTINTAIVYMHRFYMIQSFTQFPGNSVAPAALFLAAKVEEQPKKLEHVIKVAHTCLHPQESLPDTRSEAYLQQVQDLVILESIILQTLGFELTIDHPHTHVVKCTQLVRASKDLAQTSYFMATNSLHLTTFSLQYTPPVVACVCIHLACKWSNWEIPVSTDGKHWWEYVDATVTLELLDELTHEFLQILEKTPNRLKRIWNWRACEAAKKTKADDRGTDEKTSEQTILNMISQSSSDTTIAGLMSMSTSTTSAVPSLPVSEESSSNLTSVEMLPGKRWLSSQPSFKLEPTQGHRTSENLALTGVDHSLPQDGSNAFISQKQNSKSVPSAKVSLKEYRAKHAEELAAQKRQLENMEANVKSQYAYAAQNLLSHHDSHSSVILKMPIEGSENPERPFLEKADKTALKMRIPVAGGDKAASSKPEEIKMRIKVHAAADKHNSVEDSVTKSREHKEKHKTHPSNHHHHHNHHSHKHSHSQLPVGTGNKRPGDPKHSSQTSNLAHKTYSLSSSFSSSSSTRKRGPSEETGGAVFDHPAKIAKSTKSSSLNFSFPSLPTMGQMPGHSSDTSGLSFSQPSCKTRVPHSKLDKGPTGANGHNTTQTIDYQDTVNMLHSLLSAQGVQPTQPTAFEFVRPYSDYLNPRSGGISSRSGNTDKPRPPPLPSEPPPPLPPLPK
The next data set has as its target IKKα(h) (Homo sapiens, UniProt O15111). The data set is described as follows: Off-target kinase panel. The format is biochemical. The note with it: MI891 @ 1 µM. Here is the method:
as §4

For the next data set, the target named is T4, PXR LBD (Homo sapiens, UniProt O75469).
T4 construct: purchased Thermo Fisher Scientific PV4839
Briefly: LanthaScreen TR-FRET PXR competitive binding assay. The conditions noted are these: recombinant PXR LBD, competition with tracer. Here is the method:
as §1

The target in another data set is T5, PXR (Homo sapiens, UniProt O75469).
T5 sequence (O75469 1-434): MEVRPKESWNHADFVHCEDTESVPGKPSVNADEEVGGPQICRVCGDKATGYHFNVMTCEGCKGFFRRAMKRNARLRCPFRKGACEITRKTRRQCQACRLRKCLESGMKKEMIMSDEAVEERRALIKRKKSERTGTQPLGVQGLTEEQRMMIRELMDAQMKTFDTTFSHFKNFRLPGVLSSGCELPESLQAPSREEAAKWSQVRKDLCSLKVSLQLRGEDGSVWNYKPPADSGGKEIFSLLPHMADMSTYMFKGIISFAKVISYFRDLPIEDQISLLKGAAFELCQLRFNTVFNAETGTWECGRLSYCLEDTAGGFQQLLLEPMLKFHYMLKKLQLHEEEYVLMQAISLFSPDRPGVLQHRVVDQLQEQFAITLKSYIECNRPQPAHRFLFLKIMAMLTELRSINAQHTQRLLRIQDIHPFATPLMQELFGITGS
Briefly: PXR-responsive CYP3A4 promoter luciferase reporter assay in HepG2, agonist mode. More on the design: expressed in transfected cells; host or cells: HepG2. The conditions noted are these: HepG2, at concentrations up to 10 μM. In kind it is cell-based. The method, then: Rhesus monkey, mouse, and rat PXR expression vectors (100 ng/well each) were also obtained from GenScript. […] Carlberg (University of Kuopio, Kuopio, Finland).
as §3

Aurora-A(h), sequence (O14965 whole entry): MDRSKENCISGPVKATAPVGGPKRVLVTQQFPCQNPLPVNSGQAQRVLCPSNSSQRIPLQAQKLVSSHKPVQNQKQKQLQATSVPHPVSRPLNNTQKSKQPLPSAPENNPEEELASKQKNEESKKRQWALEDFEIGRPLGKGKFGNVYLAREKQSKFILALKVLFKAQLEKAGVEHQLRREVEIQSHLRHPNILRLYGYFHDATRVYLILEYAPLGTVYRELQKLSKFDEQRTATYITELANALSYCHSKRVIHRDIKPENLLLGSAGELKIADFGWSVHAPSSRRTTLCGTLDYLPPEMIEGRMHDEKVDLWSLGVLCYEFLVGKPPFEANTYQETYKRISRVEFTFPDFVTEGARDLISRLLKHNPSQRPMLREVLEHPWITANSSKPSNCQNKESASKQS
PPARα, sequence (Q07869 whole entry): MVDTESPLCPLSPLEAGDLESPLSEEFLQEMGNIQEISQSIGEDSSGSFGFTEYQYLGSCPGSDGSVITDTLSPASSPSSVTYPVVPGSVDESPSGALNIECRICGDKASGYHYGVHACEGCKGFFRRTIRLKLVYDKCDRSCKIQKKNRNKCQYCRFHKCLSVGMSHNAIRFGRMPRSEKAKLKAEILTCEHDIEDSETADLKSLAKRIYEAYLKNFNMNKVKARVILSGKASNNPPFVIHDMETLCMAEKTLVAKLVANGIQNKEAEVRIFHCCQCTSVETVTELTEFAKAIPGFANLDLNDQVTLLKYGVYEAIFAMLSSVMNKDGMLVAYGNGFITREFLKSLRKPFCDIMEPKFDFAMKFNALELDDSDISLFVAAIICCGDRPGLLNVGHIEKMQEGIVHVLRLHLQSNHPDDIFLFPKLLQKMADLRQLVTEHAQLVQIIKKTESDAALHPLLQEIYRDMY
IKKα(h), sequence (O15111 whole entry): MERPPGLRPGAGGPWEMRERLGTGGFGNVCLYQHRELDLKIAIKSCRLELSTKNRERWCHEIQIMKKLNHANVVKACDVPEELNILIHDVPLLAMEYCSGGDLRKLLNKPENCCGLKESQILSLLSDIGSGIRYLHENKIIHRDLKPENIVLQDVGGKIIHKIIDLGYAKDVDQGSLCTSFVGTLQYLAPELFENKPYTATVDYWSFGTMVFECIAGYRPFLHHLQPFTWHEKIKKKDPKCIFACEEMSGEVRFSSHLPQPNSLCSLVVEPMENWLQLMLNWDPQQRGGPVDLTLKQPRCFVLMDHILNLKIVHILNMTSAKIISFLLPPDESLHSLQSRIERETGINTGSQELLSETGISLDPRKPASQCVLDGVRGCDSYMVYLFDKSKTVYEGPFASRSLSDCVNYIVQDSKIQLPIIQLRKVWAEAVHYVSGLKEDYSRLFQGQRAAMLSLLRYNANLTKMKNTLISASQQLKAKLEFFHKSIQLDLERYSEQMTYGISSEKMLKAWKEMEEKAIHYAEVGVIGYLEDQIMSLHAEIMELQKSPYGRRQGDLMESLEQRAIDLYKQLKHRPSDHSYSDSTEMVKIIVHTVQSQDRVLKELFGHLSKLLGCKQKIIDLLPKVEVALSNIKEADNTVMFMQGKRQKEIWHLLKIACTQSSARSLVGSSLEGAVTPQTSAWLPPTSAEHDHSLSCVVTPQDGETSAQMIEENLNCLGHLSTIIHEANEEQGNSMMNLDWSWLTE

Regarding `NC(=O)c1cc(Cn2cc(-c3c(-c4ccc(Cl)cc4)nc4c(F)cc(F)cn34)nn2)ccc1Cl` [Compound 11, 2-Chloro-5-((4-(2-(4-chlorophenyl)-6,8-difluoroimidazo[1,2-a]pyridin-3-yl)-1H-1,2,3-triazol-1-yl)methyl)-benzamide], the “CAR TR-FRET (EC50, μM)” value at human CAR LBD (listed as 11 (MI891)) was “nb”; at human CAR LBD (listed as MI891), “no binding activity”. For the same compound, the half-life in data set [1] was over 120 min. The “agonistic or antagonistic activity on VDR” value at vitamin D receptor (VDR) was “no significant agonistic or antagonistic activities”. Moreover, the “agonistic or antagonistic activity on LXRβ” value on LXRβ is recorded as “no significant agonistic or antagonistic activities”. Besides, the “agonistic or antagonistic activity on PPARα” value at PPARα is “no significant agonistic or antagonistic activities”. In the data set on rodent PXRs, the “activity on rodent PXRs” value is recorded as “no activities”. Further, the activity at 1 µM on Aurora-A(h) is 81%; on CDK9/cyclin T1(h), 124%; on IKKα(h), 104%.
As to “N-(4-((1-(2,5-dimethoxyphenyl)-5-methyl-1H-1,2,3-triazol-4-yl)sulfonyl)phenyl)-3-(2-(2-(2-(4-(((2-(2,6-dioxopiperidin-3-yl)-1,3-dioxoisoindolin-4-yl)amino)methyl)-1H-1,2,3-triazol-1-yl)ethoxy)ethoxy)ethoxy)propenamide [Compound 36]”, the “binding to PXR LBD compared to MI1011B and SR12813” value on PXR LBD is “weaker binding to PXR LBD”. Besides, the PXR agonistic activity result on PXR was “did not exhibit agonistic activity”.

Values taken from article PMC12305494, “Discovery of PXR Antagonist MI891 and PXR Degrader MI1013 and Their Roles in Hepatic Gene Regulation” (Journal of Medicinal Chemistry, 2025).
